Experimental data as given in patent US8354265B2, “Chemicals promoting the growth of N-acylhomoserine lactone-degrading bacteria” (Centre National de la Recherche Scientifique, priority 2007, dated 2013).
“Also recorded” adds a separate entry of the source.

Experiments:
[1] = test system: Erwinia carotovora subsp. atroseptica 6276; assay: Maceration assay on potato tubers (biocontrol activity of consortia); type: in vivo; conditions: potato tubers infected with mix of Erwinia carotovora 6276 and consortia
Description: FIG. 6: Maceration assay on potato tubers.
The Mannitol-, 6CL-, GCL-, and HTN-consortia were compared for their capacity to inactivated OC8-HSL, the major NAHL produced by the plant pathogen Erwinia carotovora subsp. atroseptica 6276, as well as for their biocontrol activity against this pathogen in potato maceration assay.

[2] = test system: NAHL-degrading bacteria in the nutritive solution; assay: Ratio of NAHL-degrading bacteria in unplanted batches of nutritive solution; type: cell-based; conditions: for percentage of NAHL-degrading bacteria in the nutritive solution: without plants
Protocol: The non sterile batches (40×60×8 cm) contained 13 L of the nutritive solution Hydrobloom (Cellmax, UK) with Nitrogen at 0.80 g/L, Phosphore at 0.56 g/L and Potassium at 1.48 g/L as major components. The solution was diluted from a concentrated stock solution (×250) with non sterile water from the public water system. One hundred plants of Solanum tuberosum var. Allians, which were recovered from cultures performed under sterile conditions, were placed into holes (3 cm space to each other) of batch covers. Planted batches were placed in the greenhouse (Comité Nord Plants de Pomme de Terre, Bretteville-du-Grand-Caux) under natural light at 10-15° C. (night) and 25-30° C. (day). […] An untreated batch was used as a control. One gram of roots (fresh weight) was resuspended in 10 mL of sterile MgSO4 10 mM, diluted and spread on TSA and King B plates to isolate total cultivable bacteria and fluorescent Pseudomonas, respectively. Three samples were analyzed from each batch at each time D0, D14 and D28; from each sample, thirty isolates from TSA plates and thirty fluorescent isolates from King B plates were individually tested from production and inactivation of NAHL signal.
(§1) Bacterial isolates grown in 96-microwell plates were individually tested from production of NAHL with the A. tumefaciens biosensor NT1 (pZNLR4) and the inactivation of the C6-HSL signal, as described previously (d'Angelo-Picard et al. 2004).
Allians was evaluated. The plants were cultivated in vitro under sterile conditions, then placed into batches in a greenhouse at Bretteville-du-Grand-Caux (France) in a non-sterile environment. Especially, a non-sterile nutritive solution was used and served as a source of naturally occurring bacteria. […] The ratio of NAHL-degrading bacteria in the nutritive solution was evaluated before the treatment and 14-day later. This percentage increased from 10±2 to 30±2 in the case of the 6CL-treated batch and from 10±2 to 70±2 in the GCL-treated batch. From the 6CL- and GCL-treated batches, 10 NAHL-degrading bacteria were identified by their rrs sequence: 9 belonged to the Delftia genus, the other one to the Rhodococcus genus.

[3] = test system: bacterial isolates from untreated and GCL-treated batches; assay: Assimilation of GCL as sole carbon source versus NAHL inactivation by isolates (FIG. 10); type: cell-based; conditions: untreated and GCL-treated (0.1 and 0.4 mL/L) batches; D14 and D28
Protocol: Each disk represents 90 isolates from untreated or GCL-treated (0.1 and 0.4 mL/L) batches 14 days (D14) and 28 days (D28) after the beginning of the treatment.
as §1
Results were cross-examined with respect to the ability of each strain to inactivate (or not) NAHL signal.

[4] = test system: bacterial populations of potato roots; assay: DGGE analysis of bacterial populations associated with roots; type: in vivo, Solanum tuberosum; conditions: D14 and D28; 0.1 and 0.4 mL/L, most visible at 0.4 mL/L
Protocol: FIG. 11: DGGE analyses. […] Numbered bands on pictures were analyzed by sequencing. For each sequence or group of sequences, one of the closest rrs sequences was indicated. It is identified by its Genbank number, the similarity indice (SI) (calculated at Ribosomal Database Project http://rdp.cme.msu.edu/), and the name and taxonomical position of the bacteria of origin (Bact, Bacteria; BC, Bacteroidetes/Chlorobi group; Firm, Firmicutes; α,α-proteobacteria; β,β-proteobacteria; and γ,γ-proteobacteria).
The structure of the bacterial population associated with roots system (ca. 10 g) was analyzed by DGGE of PCR-amplified rrs region (position 341-534 of E. coli sequence). Two samples were analyzed from each batch. The DGGE analysis was performed by Microbial Insights (Rockford, Tenn., USA), as previously described (d'Angelo-Picard et al., 2004). Band positions in each line were converted to 0 (absence) and 1 (presence) value and assembled in a matrix. Profile similarity was calculated with the Dice algorithm using DistAFLP software (http://pbil.univ-lyon1.fr/ADE-4/microb). Sequence identification of selected bands was performed using the sequence match facility of the Ribosomal Database Project (http://rdp.cme.msu.edu/), according to NCBI taxonomy (http://www.ncbi.nlm.nih.gov/Taxonomy/). […]

[5] = 6CL- and GCL-treated batches together, rrs sequence

## CCC1CCC(=O)O1 (stereo not shown) [GCL, gamma-caprolactone]
[1]
  biocontrol activity of the consortia against E. carotovora 6276: biocontrol activity was observed; also recorded: showed biocontrol activity
[2]; [5]
  NAHL-degrading bacteria belonging to the Delftia genus (of 10 identified): 9
  NAHL-degrading bacteria belonging to the Rhodococcus genus (of 10 identified): one
[2]; 14-day after treatment at 1 mL/L
  percentage of NAHL-degrading bacteria in the nutritive solution: 70±2%
[2]; before the treatment
  percentage of NAHL-degrading bacteria in the nutritive solution: 10±2%
[3]
  occurrence of bacteria both assimilating GCL and inactivating NAHL: only detected in the treated batches
[4]
  change of bacterial populations by DGGE: drastic remodelling of bacterial populations
